Results from PubChem BioAssay AID248 (DTP/NCI, 2004).
“And” between values parts separate entries of the source, which are not always exact repeats. Equal values may be shown once. Toxic doses and inconclusive results are not listed.

Tested on: L1210 leukemia ip in BDF1 mice, survival T/C
Assay: NCI In Vivo Anticancer Drug Screen. Data for tumor model L1210 Leukemia (intraperitoneal) in B6D2F1 (BDF1) mice
Settings: endpoint: mean survival time, higher = longer survival
Outline: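 Survival endpoint. Drug-treated group vs vehicle group, expressed as T divided by C. Tumor passaged by transplantation.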

[1] = dose: 100.0 mg/kg/injection, schedule: Q01DX009 (ip), vehicle: saline with Tween-80
[2] = dose: 200.0 mg/kg/injection, schedule: Q01DX009 (ip), vehicle: saline with Tween-80
[3] = dose: 400.0 mg/kg/injection, schedule: Q01DX009 (ip), vehicle: saline with Tween-80
[4] = dose: 100.0 mg/kg/injection, schedule: Q01DX009 (ip), vehicle: Klucel (hydroxypropylcellulose) (HPC)
[5] = dose: 200.0 mg/kg/injection, schedule: Q01DX009 (ip), vehicle: Klucel (hydroxypropylcellulose) (HPC)
[6] = dose: 400.0 mg/kg/injection, schedule: Q01DX009 (ip), vehicle: Klucel (hydroxypropylcellulose) (HPC)

SMILES: COc1ccc(CC(N)C(=O)O)cc1N(CCCl)CCCl (centres undefined)
- T/C (dose: 0.07 mg/kg/injection, schedule: Q01DX009 (ip), vehicle: carboxymethylcellulose (CMC)): 116 % of control
- T/C (dose: 0.08 mg/kg/injection, schedule: Q01DX009 (ip), vehicle: carboxymethylcellulose (CMC)): 117 % of control
- T/C (dose: 0.4 mg/kg/injection, schedule: Q01DX009 (ip), vehicle: carboxymethylcellulose (CMC)): 110 % of control
- T/C (dose: 0.6 mg/kg/injection, schedule: Q01DX001 (ip), vehicle: carboxymethylcellulose (CMC)): 111 % of control and 108 % of control
- T/C (dose: 1.2 mg/kg/injection, schedule: Q01DX001 (ip), vehicle: carboxymethylcellulose (CMC)): 120 % of control and 106 % of control
- T/C (dose: 1.2 mg/kg/injection, schedule: Q01DX009 (ip), vehicle: carboxymethylcellulose (CMC)): 150 % of control
- T/C (dose: 1.5 mg/kg/injection, schedule: Q01DX009 (ip), vehicle: carboxymethylcellulose (CMC)): 151 % of control
- T/C (dose: 2.0 mg/kg/injection, schedule: Q01DX009 (ip), vehicle: carboxymethylcellulose (CMC)): 166 % of control
- T/C (dose: 2.5 mg/kg/injection, schedule: Q01DX001 (ip), vehicle: carboxymethylcellulose (CMC)): 121 % of control and 110 % of control
- T/C (dose: 2.5 mg/kg/injection, schedule: Q01DX009 (ip), vehicle: carboxymethylcellulose (CMC)): 227 % of control
- T/C (dose: 3.0 mg/kg/injection, schedule: Q01DX009 (ip), vehicle: carboxymethylcellulose (CMC)): 183 % of control
- T/C (dose: 4.5 mg/kg/injection, schedule: Q01DX009 (ip), vehicle: carboxymethylcellulose (CMC)): 180 % of control and 213 % of control
- T/C (dose: 5.0 mg/kg/injection, schedule: Q01DX001 (ip), vehicle: carboxymethylcellulose (CMC)): 123 % of control
- T/C (dose: 5.0 mg/kg/injection, schedule: Q01DX009 (ip), vehicle: carboxymethylcellulose (CMC)): 92 % of control
- T/C (dose: 5.5 mg/kg/injection, schedule: Q01DX001 (ip), vehicle: carboxymethylcellulose (CMC)): 151 % of control and 152 % of control
- T/C (dose: 6.0 mg/kg/injection, schedule: Q01DX009 (ip), vehicle: carboxymethylcellulose (CMC)): 98 % of control
- T/C (dose: 7.0 mg/kg/injection, schedule: Q01DX009 (ip), vehicle: carboxymethylcellulose (CMC)): 116 % of control
- T/C (dose: 11.0 mg/kg/injection, schedule: Q01DX001 (ip), vehicle: carboxymethylcellulose (CMC)): 206 % of control
- T/C (dose: 12.0 mg/kg/injection, schedule: Q01DX009 (ip), vehicle: carboxymethylcellulose (CMC)): 93 % of control
- T/C (dose: 16.5 mg/kg/injection, schedule: Q01DX001 (ip), vehicle: carboxymethylcellulose (CMC)): 173 % of control
- T/C (dose: 25.0 mg/kg/injection, schedule: Q01DX001 (ip), vehicle: carboxymethylcellulose (CMC)): 217 % of control

SMILES: Nc1cc(S(=O)(=O)c2ccc(O)c(N)c2)ccc1O
- T/C [1]: 105 % of control
- T/C (dose: 100.0 mg/kg/injection, schedule: Q04DX003 (ip), vehicle: saline with Tween-80): 103 % of control
- T/C [2]: 107 % of control
- T/C (dose: 200.0 mg/kg/injection, schedule: Q04DX003 (ip), vehicle: saline with Tween-80): 104 % of control
- T/C [3]: 109 % of control
- T/C (dose: 400.0 mg/kg/injection, schedule: Q04DX003 (ip), vehicle: saline with Tween-80): 97 % of control

SMILES: N#CC1(Nc2ccc3c4c(cccc24)CC3)CCCCC1
- T/C (dose: 100.0 mg/kg/injection, schedule: Q04DX002 (ip), vehicle: saline with Tween-80): 95 % of control
- T/C (dose: 200.0 mg/kg/injection, schedule: Q04DX002 (ip), vehicle: saline with Tween-80): 109 % of control
- T/C (dose: 400.0 mg/kg/injection, schedule: Q04DX002 (ip), vehicle: saline with Tween-80): 95 % of control

SMILES: CN(C)c1ccc2c(c1)Cc1cc(NC(=O)/C=C/C(=O)O)ccc1-2
- T/C (dose: 100.0 mg/kg/injection, schedule: Q04DX003 (ip), vehicle: saline): 112 % of control
- T/C (dose: 200.0 mg/kg/injection, schedule: Q04DX003 (ip), vehicle: saline): 93 % of control
- T/C (dose: 400.0 mg/kg/injection, schedule: Q04DX003 (ip), vehicle: saline): 91 % of control

SMILES: CCOC(=O)C(c1cccc(OC)c1)C1(C(=O)OCC)CC2(CCC1=O)OCCO2 (centres undefined)
- T/C [4]: 93 % of control
- T/C [5]: 95 % of control
- T/C [6]: 88 % of control

SMILES: C=CCN1C2C=C(c3ccccc3)CC1CCC2 (centres undefined)
- T/C (dose: 12.5 mg/kg/injection, schedule: Q04DX003 (ip), vehicle: Klucel (hydroxypropylcellulose) (HPC)): 100 % of control
- T/C (dose: 25.0 mg/kg/injection, schedule: Q04DX003 (ip), vehicle: Klucel (hydroxypropylcellulose) (HPC)): 96 % of control

SMILES: O=C1OC(=O)C(Br)C1Br (centres undefined)
- T/C (dose: 1.56 mg/kg/injection, schedule: Q04DX003 (ip), vehicle: saline): 106 % of control
- T/C (dose: 3.12 mg/kg/injection, schedule: Q04DX003 (ip), vehicle: saline): 106 % of control
- T/C (dose: 6.25 mg/kg/injection, schedule: Q04DX003 (ip), vehicle: saline): 95 % of control
- T/C (dose: 12.5 mg/kg/injection, schedule: Q04DX003 (ip), vehicle: saline): 108 % of control
- T/C (dose: 25.0 mg/kg/injection, schedule: Q04DX003 (ip), vehicle: saline): 87 % of control

SMILES: Cc1ccc(C)n1CCO
- T/C (dose: 44.0 mg/kg/injection, schedule: Q01DX Z (ip), vehicle: saline): 106 % of control
- T/C (dose: 66.0 mg/kg/injection, schedule: Q01DX Z (ip), vehicle: saline): 94 % of control
- T/C (dose: 100.0 mg/kg/injection, schedule: Q01DX Z (ip), vehicle: saline): 96 % of control

SMILES: NC(N)=N/N=C/C(Cl)(Cl)Cl
- T/C (dose: 15.0 mg/kg/injection, schedule: Q01DX Z (ip), vehicle: saline): 87 % of control
- T/C (dose: 30.0 mg/kg/injection, schedule: Q01DX Z (ip), vehicle: saline): 103 % of control
- T/C (dose: 60.0 mg/kg/injection, schedule: Q01DX Z (ip), vehicle: saline): 95 % of control
- T/C (dose: 60.0 mg/kg/injection, schedule: Q01DX Z (oral), vehicle: saline): 97 % of control
- T/C (dose: 120.0 mg/kg/injection, schedule: Q01DX Z (oral), vehicle: saline): 97 % of control
- T/C (dose: 240.0 mg/kg/injection, schedule: Q01DX Z (oral), vehicle: saline): 95 % of control
- T/C (dose: 480.0 mg/kg/injection, schedule: Q01DX Z (oral), vehicle: saline): 98 % of control

SMILES: Cc1cc2c(N)[nH]c(=O)nc2s1
- T/C (dose: 100.0 mg/kg/injection, schedule: Q04DX003 (ip), vehicle: water): 90 % of control
- T/C (dose: 200.0 mg/kg/injection, schedule: Q04DX003 (ip), vehicle: water): 93 % of control

SMILES: CNc1cc(C(C)C)ccc1C
- T/C (dose: 12.5 mg/kg/injection, schedule: Q01DX009 (ip), vehicle: Klucel (hydroxypropylcellulose) (HPC)): 102 % of control
- T/C (dose: 25.0 mg/kg/injection, schedule: Q01DX009 (ip), vehicle: Klucel (hydroxypropylcellulose) (HPC)): 96 % of control
- T/C (dose: 50.0 mg/kg/injection, schedule: Q01DX009 (ip), vehicle: Klucel (hydroxypropylcellulose) (HPC)): 113 % of control
- T/C (dose: 100.0 mg/kg/injection, schedule: Q01DX009 (sc), vehicle: olive oil, sesame oil, peanut oil): 114 % of control
- T/C (dose: 100.0 mg/kg/injection, schedule: Q04DX003 (sc), vehicle: olive oil, sesame oil, peanut oil): 108 % of control
- T/C (dose: 200.0 mg/kg/injection, schedule: Q01DX009 (sc), vehicle: olive oil, sesame oil, peanut oil): 105 % of control
- T/C (dose: 200.0 mg/kg/injection, schedule: Q04DX003 (sc), vehicle: olive oil, sesame oil, peanut oil): 105 % of control
- T/C (dose: 400.0 mg/kg/injection, schedule: Q01DX009 (sc), vehicle: olive oil, sesame oil, peanut oil): 110 % of control
- T/C (dose: 400.0 mg/kg/injection, schedule: Q04DX003 (sc), vehicle: olive oil, sesame oil, peanut oil): 103 % of control

SMILES: OC(/C=C/c1ccccc1)C(O)/C=C/c1ccccc1 (centres undefined)
- T/C [1]: 102 % of control
- T/C [2]: 104 % of control
- T/C [3]: 111 % of control

SMILES: O=C(Nc1ccccc1Cl)Nc1ccccc1[N+](=O)[O-]
- T/C (dose: 100.0 mg/kg/injection, schedule: Q04DX002 (ip), vehicle: saline + alcohol): 111 % of control
- T/C (dose: 200.0 mg/kg/injection, schedule: Q04DX002 (ip), vehicle: saline + alcohol): 100 % of control
- T/C (dose: 400.0 mg/kg/injection, schedule: Q04DX002 (ip), vehicle: saline + alcohol): 96 % of control

SMILES: CNc1nc2ncn(C)c2c(=O)[nH]1
- T/C (dose: 100.0 mg/kg/injection, schedule: Q01DX009 (ip), vehicle: saline): 97 % of control
- T/C (dose: 200.0 mg/kg/injection, schedule: Q01DX009 (ip), vehicle: saline): 98 % of control
- T/C (dose: 400.0 mg/kg/injection, schedule: Q01DX009 (ip), vehicle: saline): 98 % of control

SMILES: Cc1ccc(C(=O)CN(Cc2ccccc2)Cc2ccccc2)cc1
- T/C [4]: 103 % of control
- T/C (dose: 100.0 mg/kg/injection, schedule: Q04DX003 (ip), vehicle: Klucel (hydroxypropylcellulose) (HPC)): 98 % of control
- T/C [5]: 97 % of control
- T/C (dose: 200.0 mg/kg/injection, schedule: Q04DX003 (ip), vehicle: Klucel (hydroxypropylcellulose) (HPC)): 92 % of control
- T/C [6]: 92 % of control
- T/C (dose: 400.0 mg/kg/injection, schedule: Q04DX003 (ip), vehicle: Klucel (hydroxypropylcellulose) (HPC)): 91 % of control
